Structures can show the parent of a compound that is named as a salt. Marks after values point to notes of the source that are not given here. Values belong to the compound of their own block, whether it stands above or below them.
Tests used:
C. elegans germline = test: Size of mitotic zone of the germline (DAPI, phospho-histone H3 staining)
Description: In C. elegans, the germline is comprised of two main compartments, a mitotic region (the premeiotic tip), where nuclei are under the influence of the distal tip cell that maintains them in a proliferative state; and the meiotic region, where nuclei progress through the stages of Prophase I before being fertilized. The mitotic compartment of the worm gonad following BPA exposure was examined.
(§1) BPA bears endocrine disrupting activity in many developmental contexts including gonadal, brain and mammary gland development. BPA has affinity for multiple members of the estrogen receptors family, in particular BPA binds to the human estrogen receptor alpha (ERα) and ERβ as well as estrogen-related receptor gamma (ERR-γ) and in C. elegans with nuclear hormone receptor NHR-14 which also binds estrogen. […] Two hallmarks of exposure to BPA were examined, the decrease in the size of the proliferative zone and the condensation defects observed at diakinesis, as they are both highly penetrant and consistent phenotypes. […] Similarly to the experiments described above, the size of the mitotic zone was quantified as well as condensation defects at diakinesis.
Growing Conditions and Drug Exposures. Worms were cultured according to [23] at 20° C. on NGM plates without cholesterol. […] Exposure was carried from embryogenesis to adulthood by plating sodium hypochloride treated eggs onto drug and control plates and incubated at 20° C. for four days.
Antibody Staining. DAN staining, immunostaining and analysis of stained meiotic nuclei were performed as in [25] except for ATL-1 and AIR-2 antibodies were dissected gonads were subjected to a 1% fixation method as described in [27]. […] The secondary antibodies used were: Cy3 anti-rabbit, FITC anti-guinea-pig and FITC anti-mouse (Jackson Immunochemicals), each at 1:100, Stacks of 0.2 μm slices were captured using a Leica microscope, coupled to the DeltaVision fluorescence microscope system (Applied Precision). […]

xol-1::GFP worms = test: xol-1::GFP reporter assay for male (aneuploid) embryos; conditions: for male embryos in adult mid-ventral sections: 0.1 mg/ml in liquid culture, added 1 day post-L4 for 20 hours; for frequency of xol-1::GFP worms containing GFP+ eggs: 0.1 mg/ml, preliminary analysis
Protocol: In one embodiment of the invention, synchronized cultures of worms are grown for the desired developmental period (e.g., from eggs to adulthood, 4 days) on multiwell plates (e.g., 96-well plates) containing media mixed with the compound of interest at the concentration of interest (e.g., 1 μM and 100 μM). The concentrations can be adjusted if necessary to compensate for solubility differences. Following exposure, the worms are washed off the plate with a physiological buffer and then run through a high-throughput flow cytometry device (e.g., the COPAS Biosort). With this automated nematode analysis, sorting, and dispensing platform (Furlong et al., Nat Biotechnol. 2001; 19(2):153-6; Gill et al., Free Radic Biol Med. 2003; 35(6):558-65; Rea et al., Nat Genet. 2005; 37(8):894-8. PMCID: 1479894) one 96-well plate can be screened per hour. In one embodiment, test wells are alternated with mock wells to flush the equipment in order to avoid cross-contamination. […] The worm sorter not only directs the sorting of GFP positive worms from GFP negative ones but when coupled to the Profiler analysis software, also allows for the localization of the fluorescence within the worm. In one embodiment, scoring is for GFP positive eggs present in the animal's mid-ventral section (uterus), therefore, any worms showing mis-localized GFP expression will be discarded thus improving the accuracy of the screen. Positive controls used for the screen can include colchicine and nocodazole, both described as disruptors of spindle organization and therefore of chromosome segregation (Sato A, et al., Cell. 2009; 139(5):907-19; Stear et al., Mol Biol Cell. 2004; 15(11):5187-96. PMCID: 524797).
Worms are grown from eggs to adulthood (4 days) on 96-well plates containing media mixed with the compound of interest. Initially, two different concentrations are assayed, 1 μM and 100 μM, concentrations previously used in the context of other C. elegans toxicological screens (Boyd, McBride and Freedman, 2007; Boyd et al, 2009).
Following exposure, the worms are washed off the plate with buffer and run through a high-throughput flow cytometry device, commonly known as a “worm sorter” (COPAS-Biosort from Union Biometrica). The worm sorter not only directs the sorting of GFP positive worms from GFP negative ones but when coupled to the Profiler analysis software, also allows for the localization of the fluorescence within the worm. Scoring in the screen, is for GFP positive eggs present in the animal's mid-ventral section (uterus), therefore, any worms showing mis-localized GFP expression are discounted thus improving the accuracy of the screen.
The xol-1::GFP reporter strain was tested for meiotic disruption by addition of an external agent, by exposing the C. elegans to several cell cycle disruptors (microtubule disrupting agents) dissolved in DMSO, DMSO alone was used as a negative control. Each individual test agent was added to the liquid culture medium of the C. elegans at 1 day post-L4 (4 days of development) for a total of 20 hours. The C. elegans was then analyzed for the percentage of male embryos in the adult-midventral sections. Nocodazol was added to the medium at a final concentration of 0.1 mg/ml.
Adult xol-1::GFP worms were exposed to 100 μM nocodazole for 24 hours in liquid culture and the presence of GFP+ embryos in the uterus of exposed worms was monitored.
The effect of selected chemotherapeutic agents on the generation of aneuploidies was analyzed. xol-1::GFP adult worms were exposed to the compounds at a concentration of 100 μM for 24 hours in liquid culture in triplicates.
Each well contained 750 μl of M9, the drug at a final concentration of 100 μM, concentrated bacteria and young adults+eggs. The cultures were examined at 24 hours and 4 days.

[1] = tested on: C. elegans diakinesis oocytes; test: Diakinesis oocyte analysis (chromosome condensation, SYP-1, AIR-2, pH3); conditions: 1 mM E2; […] 4-HT
Description: Proper processing of recombination events is coupled with the formation of mature bivalents during the diakinesis stage such that in mutants where recombination intermediate processing is impaired, bivalent maturation is delayed.
Associated with the changes in chromatin morphology, the SC is disassembled during late diakinesis in a tightly controlled fashion. Accordingly, SC components, such as SYP-1, are detectable on the short arms of the bivalent in the −3 oocyte but are essentially absent from the bivalents of −2 and −1 oocytes. Thus, whether a delay in chromosome remodeling could correlate with an incomplete disassembly of SC components in late diakinesis was examined.
Accurate chromosome segregation at meiosis I is characterized by the carefully orchestrated loss of cohesion between homologs coupled with retention of cohesion between sister chromatids. This regulated process involves the targeting of the Aurora-B kinase AIR-2, a member of the chromosomal passenger complex, to the short arm of the bivalents in the −1 oocyte which has been proposed to lead to the removal the meiosis-specific cohesin REC-8 from the short arms of the bivalent. To examine whether these key steps in late meiotic prophase I might be impaired in BPA treated gonads, the localization of AIR-2 in the −1 oocytes was examined. […] Phospho histone H3 (pH3) is a canonical substrate for the activity of AIR-2 [59] and accordingly, although it accumulates in the −3 to −1 oocytes, it is only detected on the short arms of the bivalent in the −1 oocyte in the presence of AIR-2 [56, 57].
as §1
Antibody Staining. DAN staining, immunostaining and analysis of stained meiotic nuclei were performed as in [25] except for ATL-1 and AIR-2 antibodies were dissected gonads were subjected to a 1% fixation method as described in [27]. Antibodies were used at the following dilutions: rabbit α-SYP-1 (1:100), mouse α-RAD-51 (1:100), rabbit α-HTP-3 (1:500), guinea pig α-HIM-8 (1:100), rabbit α-ATL-1 (1:50), rabbit α-AIR-2 (1:100) and rabbit α-pCHK-1 (1:100). The secondary antibodies used were: Cy3 anti-rabbit, FITC anti-guinea-pig and FITC anti-mouse (Jackson Immunochemicals), each at 1:100, Stacks of 0.2 μm slices were captured using a Leica microscope, coupled to the DeltaVision fluorescence microscope system (Applied Precision). The images were projections approximately halfway through 3D data stacks of whole nuclei, except for diakinesis images which encompass entire nuclei.

xol-1::LUC = test: xol-1::luciferase reporter induction; type: in vivo, C. elegans; conditions: 1 μM or 100 μM for 24 hours, preliminary experiment
[2] = xol-1::GFP, C. elegans, in vivo, 24 hours, 100 μM
[3] = average over the chemicals of the category, 100 μM, 24 hours, liquid culture, triplicates

Compound: Oc1ncnc2[nH]ncc12 [Allopurinol]
- Average % of worms with 1 or more GFP embryos/category (xol-1::GFP worms; [2]): 0.6%

Compound: C[C@]12CC[C@@H]3c4ccc(O)cc4CC[C@H]3[C@@H]1CC[C@@H]2O [E2, estradiol]
- increase in the number of nuclei comprising the mitotic region vs ethanol (C. elegans germline; 1 mM E2 for 4 days, DAPI staining): 13%
- bivalent maturation / condensation defects at diakinesis [1]: did not cause any observable bivalent maturation defects

Compound: CC[C@]1(O)C[C@@H]2CN(CCc3c([nH]c4ccccc34)[C@@](C(=O)OC)(c3cc4c(cc3OC)N(C)[C@H]3[C@@](O)(C(=O)OC)[C@H](OC(C)=O)[C@]5(CC)C=CCN6CC[C@]43[C@@H]65)C2)C1 [Vinblastine]
- Average % of worms with 1 or more GFP embryos/category (xol-1::GFP worms; [2]): 23.3% *

Compound: CN[C@H]1CCc2cc(OC)c(OC)c(OC)c2-c2ccc(OC)c(=O)cc21 [demecolcine]
- male embryos in adult mid-ventral sections (xol-1::GFP worms): 2.7%
- frequency of xol-1::GFP worms containing GFP+ eggs (xol-1::GFP worms): 3/66

Compound: COC(=O)Nc1nc2ccc(C(=O)c3cccs3)cc2[nH]1 [nocodazole]
- male embryos in adult mid-ventral sections (xol-1::GFP worms): 37%
- frequency of xol-1::GFP worms containing GFP+ eggs (xol-1::GFP worms): 6/16
- worms with at least one GFP+ embryo (xol-1::GFP worms; adult worms, 100 μM, 24 hours, liquid culture): 55%
- Average % of worms with 1 or more GFP embryos/category (xol-1::GFP worms; [3]): 23.3% *
- induction of luciferase compared to DMSO (xol-1::LUC): significant induction

Compound: Triethylene melamine
- Average % of worms with 1 or more GFP embryos/category (xol-1::GFP worms; [3]): 3.77% *

Further lines, results first:

- pH3 positive nuclei in mitotic zone vs control (C. elegans germline; 4 days exposure, BPA 1 mM, 4-HT […]): two-fold decrease
Compound: 4-hydroxy-tamoxifen [4-HT]

- Average % of worms with 1 or more GFP embryos/category (xol-1::GFP worms; [2]): 3.77% *
Compound: CC[C@@]1(O)C(=O)OCc2c1cc1n(c2=O)Cc2cc3c(CN(C)C)c(O)ccc3nc2-1 [Topotecan HCl]

- Average % of worms with 1 or more GFP embryos/category (xol-1::GFP worms; [3]): 23.3% *
Compound: CC[C@]1(O)C[C@H]2CN(CCc3c([nH]c4ccccc34)[C@@](C(=O)OC)(c3cc4c(cc3OC)N(C=O)[C@H]3[C@@](O)(C(=O)OC)[C@H](OC(C)=O)[C@]5(CC)C=CCN6CC[C@]43[C@@H]65)C2)C1 [Vincristine sulfate]

Reference: patent publication US20120028837A1, “RAPID SCREEN FOR REPRODUCTIVE TOXICANTS” (PRESIDENT AND FELLOWS OF HARVARD COLLEGE, priority 2010, published 2012)
